From PubChem BioAssay (NCI) come the findings set out here.

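Interpolation was linear, between the two tested concentrations surrounding the appropriate level; five concentrations were tested over 48 hours in 96-well plates. At the GI50, growth is halved. TGI is the concentration that stops growth completely.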

Among the test systems are NCI/ADR-RES ovarian; HCC-2998 colon; OVCAR-5 ovarian; IGROV1 ovarian; OVCAR-3 ovarian; SK-MEL-2 melanoma; MDA-MB-231 breast; EKVX NSCLC; SF-539 CNS; HL-60(TB) leukemia.
Holding throughout (test): growth of human tumour cells (NCI), 48 h

Consider `O=C1C(Nc2cccc(O)c2)=C(Sc2ccc(Cl)cc2)C(=O)N1Cc1ccccc1`, for which the GI50 was 7.21 µM in the assay with NCI/ADR-RES ovarian; 2.94 µM in the assay with HCC-2998 colon; 21.1 µM with OVCAR-5 ovarian; 26.8 µM in the assay with IGROV1 ovarian; 10.6 µM in the assay with OVCAR-3 ovarian; 28.3 µM in the assay on SK-MEL-2 melanoma. Moreover, the TGI in the assay on NCI/ADR-RES ovarian is 36.1 µM; in the assay with HCC-2998 colon, 7.23 µM; with OVCAR-5 ovarian it was 55 µM; with IGROV1 ovarian, over 100 µM; in the assay on OVCAR-3 ovarian it was 28.2 µM; with SK-MEL-2 melanoma, over 100 µM.

`Cc1ccc(C(=O)Nc2ccccc2C(=O)N/N=C(\c2ccccc2)c2ccccn2)cc1`: the GI50 in the assay with NCI/ADR-RES ovarian is 0.2 µM; in the assay on MDA-MB-231 breast, 0.517 µM; in the assay with HCC-2998 colon, 0.381 µM; in the assay with OVCAR-5 ovarian, 0.607 µM; with IGROV1 ovarian, 0.177 µM; in the assay on EKVX NSCLC, 0.207 µM. The values for the GI50 in the assay on OVCAR-3 ovarian and in the assay on SF-539 CNS were 0.211 µM and 0.309 µM, respectively. In addition, the TGI in the assay on NCI/ADR-RES ovarian, in the assay with MDA-MB-231 breast, in the assay on HCC-2998 colon, in the assay with OVCAR-5 ovarian, in the assay on IGROV1 ovarian and with EKVX NSCLC was over 100 µM in each case. Also, the TGI is over 100 µM in the assay on OVCAR-3 ovarian, 6.95 µM in the assay on SF-539 CNS and over 100 µM with SK-MEL-2 melanoma.

Take `COc1ccc(Cn2c3c(c4c(O)cccc42)C(=O)c2ccccc2-3)cc1`: the GI50 was 2.51 µM with NCI/ADR-RES ovarian; 12.8 µM in the assay on MDA-MB-231 breast; 8.26 µM in the assay with HCC-2998 colon; 10 µM with OVCAR-5 ovarian; 11.2 µM with IGROV1 ovarian; 12 µM with EKVX NSCLC. Further, the GI50 is 14.3 µM in the assay with OVCAR-3 ovarian and 18.2 µM in the assay on SK-MEL-2 melanoma. Further, the TGI is 11.3 µM in the assay with NCI/ADR-RES ovarian; 25.4 µM with MDA-MB-231 breast; 21.7 µM with HCC-2998 colon; 21.6 µM in the assay on OVCAR-5 ovarian; over 100 µM in the assay on IGROV1 ovarian; 27.7 µM in the assay with EKVX NSCLC. In addition, the TGI with OVCAR-3 ovarian was 28.7 µM; in the assay on SK-MEL-2 melanoma, 45.9 µM.

`O=C1c2c(O)cccc2C(C(=O)CCCC(=O)C2c3cccc(O)c3C(=O)c3c(O)cccc32)c2cccc(O)c21`: the TGI in the assay with MDA-MB-231 breast was found to be 0.329 µM; in the assay with HCC-2998 colon, 3.4 µM; with OVCAR-5 ovarian, 1.18 µM; in the assay with IGROV1 ovarian it was 2.41 µM; in the assay on EKVX NSCLC, 2.35 µM; in the assay on OVCAR-3 ovarian, 0.798 µM. Further, the values for the TGI in the assay with SF-539 CNS and in the assay on SK-MEL-2 melanoma were 0.675 µM and 0.861 µM, respectively.

Turning to `NC(N)=N/N=C(/c1ccccc1)c1ccc(O)cc1O`, the TGI in the assay with NCI/ADR-RES ovarian was over 100 µM; in the assay with MDA-MB-231 breast it was over 100 µM; with HCC-2998 colon, 32 µM; in the assay with OVCAR-5 ovarian it was over 100 µM; in the assay on IGROV1 ovarian it was over 100 µM; in the assay on EKVX NSCLC, 64.7 µM. The TGI is over 100 µM with OVCAR-3 ovarian, 39 µM in the assay with SF-539 CNS and over 100 µM in the assay on SK-MEL-2 melanoma.

As to `CC(C)[C@H](O)C(=O)N[C@H]1Cc2ccc3c(c2)[C@]24C5=C(N=C(O5)[C@H](C(C)C)NC1=O)c1nc(Cl)c(o1)-c1c(Cl)[nH]c5cccc(c15)-c1cccc2c1N[C@H]4O3`, the TGI in the assay with NCI/ADR-RES ovarian is 3.22 µM; with OVCAR-5 ovarian, over 10 µM; in the assay with IGROV1 ovarian, over 10 µM; in the assay on EKVX NSCLC, over 10 µM; in the assay on OVCAR-3 ovarian it was 0.00747 µM; with SF-539 CNS, 0.083 µM. Moreover, the GI50 was 0.00178 µM with MDA-MB-231 breast; under 0.001 µM with HCC-2998 colon; 4.26 µM in the assay with OVCAR-5 ovarian; under 0.001 µM with IGROV1 ovarian; under 0.001 µM in the assay with OVCAR-3 ovarian.

In the case of `C=C(C)C(=O)N1c2ccc(OC)cc2CC1C(=O)OCC` (stereo not given), the TGI with NCI/ADR-RES ovarian, in the assay on MDA-MB-231 breast, with HCC-2998 colon, with OVCAR-5 ovarian, in the assay with IGROV1 ovarian and in the assay on EKVX NSCLC was over 100 µM throughout. In addition, the TGI in the assay on OVCAR-3 ovarian, with SF-539 CNS and in the assay on SK-MEL-2 melanoma was over 100 µM throughout.

Turning to `COc1ccc(CC(C#N)c2cc(OC)c(OC)c(OC)c2)cc1` (stereo not given), the TGI in the assay with NCI/ADR-RES ovarian is over 100 µM; in the assay with MDA-MB-231 breast, 3.29 µM; in the assay with OVCAR-5 ovarian, over 96.9 µM; with IGROV1 ovarian, over 100 µM; with EKVX NSCLC, over 100 µM; in the assay on OVCAR-3 ovarian, 0.113 µM. Further, the figures for the TGI in the assay on HL-60(TB) leukemia, in the assay with SF-539 CNS and with SK-MEL-2 melanoma were 0.125 µM, 0.231 µM and over 100 µM, respectively.

Take `COC(=O)c1cccc2c1Oc1ccccc1S2`: the TGI with NCI/ADR-RES ovarian, with MDA-MB-231 breast, in the assay with OVCAR-5 ovarian, with IGROV1 ovarian, with EKVX NSCLC and with OVCAR-3 ovarian was over 100 µM each time. The TGI was 28.9 µM with HL-60(TB) leukemia, over 100 µM with SF-539 CNS and over 100 µM in the assay on SK-MEL-2 melanoma.

Consider `Cc1ccc2oc(=O)cc(C3c4ccc([nH]4)C(c4cc(=O)oc5ccc(C)cc45)c4ccc([nH]4)C(c4cc(=O)oc5ccc(C)cc45)c4ccc([nH]4)C(c4cc(=O)oc5ccc(C)cc45)c4ccc3[nH]4)c2c1` (stereo not given), for which the GI50 in the assay on NCI/ADR-RES ovarian is 0.0313 µM; in the assay with MDA-MB-231 breast it was 0.125 µM; in the assay on HCC-2998 colon, 0.188 µM; with OVCAR-5 ovarian, 0.106 µM; with IGROV1 ovarian it was 0.0492 µM; in the assay on EKVX NSCLC, 0.0632 µM. The GI50 in the assay on OVCAR-3 ovarian is 0.0225 µM; with SF-539 CNS, 0.0239 µM; in the assay on SK-MEL-2 melanoma it was 0.0983 µM. The TGI was 1.1 µM with NCI/ADR-RES ovarian; 0.818 µM in the assay with MDA-MB-231 breast; 0.846 µM in the assay on HCC-2998 colon; 2.71 µM with OVCAR-5 ovarian; 1.73 µM with IGROV1 ovarian; 4.48 µM with EKVX NSCLC. Besides, the TGI in the assay on OVCAR-3 ovarian was 0.0533 µM; in the assay on SF-539 CNS it was 0.0669 µM; in the assay with SK-MEL-2 melanoma, 1.02 µM.

For `COc1ccc(NCc2c(O)ccc3ccccc23)cc1`, the TGI with NCI/ADR-RES ovarian was over 100 µM; with MDA-MB-231 breast it was over 100 µM; in the assay on OVCAR-5 ovarian, 49.3 µM; with IGROV1 ovarian, over 100 µM; with EKVX NSCLC it was over 100 µM; with OVCAR-3 ovarian it was over 100 µM. Also, the TGI in the assay with SF-539 CNS is 25.9 µM; in the assay on SK-MEL-2 melanoma, over 100 µM.

As to `CCCCCC/C=C\CCCCCCCCCc1c(O)c(OC)cc(O)c1CN(C)C`, the TGI with NCI/ADR-RES ovarian came out at 37 µM; in the assay on MDA-MB-231 breast it was 31.6 µM; in the assay with OVCAR-5 ovarian, 29.6 µM; in the assay on IGROV1 ovarian, 11 µM; in the assay on EKVX NSCLC it was 23.6 µM; in the assay with OVCAR-3 ovarian, 19 µM. Besides, the TGI stood at 5.37 µM with HL-60(TB) leukemia, 22.2 µM in the assay with SF-539 CNS and 40.1 µM in the assay on SK-MEL-2 melanoma.
